Reference: patent US10010516B2, “Method for regulating retinal endothelial cell viability” (The University of Tennessee Research Foundation, priority 2012, dated 2018)
Entries after “also recorded” stand apart in the source; their conditions may differ.

What was measured:
[1] = tested on: ICAM-1; assay: ICAM-1 ELISA / Western blot in RECs treated with melphalan; type: cell-based, human; settings: TNF-α siRNA or etanercept + melphalan
[2] = tested on: RECs
[3] = tested on: paxillin; assay: Immunoblot of paxillin (Y118) phosphorylation in irradiated RECs; type: cell-based, human; settings: irradiated RECs 30 Gy, 24 hours, P<0.05
[4] = tested on: p53; assay: Immunoblot of phosphorylated and total p53 in RECs; type: cell-based, human
[5] = tested on: Y79 retinoblastoma cells; assay: Cell death ELISA in Y79 retinoblastoma cells; type: cell-based, human; settings: melphalan 0.8, 1 or 4 μg/mL tested
[6] = tested on: NF-κB; assay: Western blot of phospho-NF-κB / total NF-κB in RECs; type: cell-based, human; settings: melphalan 4 μg/mL
Procedure: Western blotting. After appropriate treatments and rinsing with cold phosphate-buffered saline, REC were lysed in the lysis buffer containing the protease and phosphatase inhibitors and scraped into the tubes. Equal amounts of protein from the cell or tissue extracts were separated on the pre-cast tris-glycine gel (Invitrogen, Carlsbad, Calif.), blotted onto a nitrocellulose membrane. After blocking in TBST (10 mM Tris-HCl buffer, pH 8.0, 150 mM NaCl, 0.1% Tween 20) and 5% (w/v) BSA, the membrane was treated with NF-κB, Phospho-NF-κB p38^MAPK, Phospho-p38^MAPK antibodies (1:500) followed by incubation with horseradish peroxidase labeled secondary antibodies. The antigen-antibody complexes were detected using chemilluminescence reagent kit (Thermo Scientific).
Transfections. REC were transfected with ICAM-1 siRNA, TNF-α siRNA, or NF-κB siRNA at a final concentration of 20 nM using Lipofectamine™ RNAiMAX Transfection Reagent according to the manufacturer's instructions. After transfection, cells were starved in MVGS-free Medium 131 for 24 hours and used as required.

[7] = tested on: RECs; settings: melphalan 4 μg/mL; cited from earlier work

In the case of etanercept, the “melphalan-induced ICAM-1 levels with TNF-α inhibition” value [1] is reported as “neither TNF-α siRNA nor etanercept could reduce ICAM-1 levels; also recorded: Neither TNFα siRNA nor etanercept reduced ICAM-1 levels” and the “REC apoptosis after melphalan treatment (etanercept)” value ([2]; etanercept + melphalan) is reported as “did not reach statistical significance”.

With `Oc1ccc(-c2nc(-c3ccncc3)c(-c3ccc(F)cc3)[nH]2)cc1` [SB202190] the “phosphorylation of paxillin at Y118” value [3] was “significantly reduced” and the “effect on RITA-induced p53 accumulation” value ([4]; concomitant treatment with RITA, P>0.05) was “did not significantly alter”.

For `OCc1ccc(-c2ccc(-c3ccc(CO)s3)o2)s1` [RITA], the p53 accumulation ([4]; RITA 10 μM for four hours vs untreated RECs, P<0.05) was “significantly enhanced”.

For `N[C@@H](Cc1ccc(N(CCCl)CCCl)cc1)C(=O)O` [melphalan], the “apoptosis of Y79 retinoblastoma cells” value [5] was 4 μg/mL produced maximal apoptosis and best induces apoptosis at 4 μg/mL, the “DNA fragmentation in RECs” value ([2]; melphalan 4 μg/mL, 24 hours) was “did increase DNA fragmentation” and the “induction of NF-κB phosphorylation” value [6] was “time-dependent”. The “time of maximum increase in NF-κB Ser536 phosphorylation” value [6] was 30 min and the “increase in REC death” value [7] was “greater than 6 fold”.
